# Patent publication EP0014223A1, “Quaternary aminoacetic anilides, herbicidal compositions containing them and method for influencing plant growth” (CIBA-GEIGY AG, priority 1979, dated 1980)
# Read-outs that look alike come from different tables or passages of the source.
# Legend:
# [1] = tested on: Chrysanthemum variety "Golden Anne"; test: Biological tests on chrysanthemums, height reduction and delay in flowering; assay type: in vivo; details: foliar spray
# Procedure: (§1) In these tests chrysanthemum varieties were used which, on account of their strong growth, can only be reared as pot plants in combination with growth inhibitors.
# (§2) About 25 days after potting (14 days after pinching) the plants were sprayed with aqueous preparations of the active substance of the Example and with Alar (known inhibitior for comparison). The growth in height of the plants was measured after three different periods (see table) and the growth inhibition is expressed in percent of the height measured on untreated plants (check = 0% reduction).
# (§3) The delay in flowering was evaluated as follows: • ^* = 3-4 days delay DAA = Days after application • ^** = 4-7 days delay
# [2] = tested on: Chrysanthemum variety "Regal Anne"; test: as above; assay type: in vivo
# Procedure: as §1, §2, §3
# [3] = tested on: Chrysanthemum variety "Wedgewood"; test: as above; assay type: in vivo; details: foliar spray
# Procedure: as §1, §2, §3
# [4] = tested on: Chrysanthemum variety "Aglow"; test: as above; assay type: in vivo; details: foliar spray
# Procedure: as §1, §2, §3
# chrysanthemums = test: Trials under practical conditions on chrysanthemums; assay type: in vivo; details: independent of environmental conditions
# Text: This inhibition is independent of environmental conditions (e.g. it is not light-dependent). Depending on the applied rate, any desired degree of growth inhibition can be obtained.
# [5] = tested on: Soya plants of the variety "Hark"; test: Inhibition of the vegetative growth and yield increase of soya plants; assay type: in vivo; details: for Inhibition rating: 5-trifoliate leaf stage, 4 weeks after application, linear rating 1-9; for % increase of pods A (number of pods) / % increase of pods B (weight of pods): versus untreated control plants
# Procedure: Soya plants of the variety "Hark" were reared in earthenware pots and sprayed at the 5-trifoliate leaf stage with aqueous preparations of the active substance of the Example. The active substance concentrations in the spray broth were 500, 100 and 50 ppm respectively. The plant growth was evaluated 4 weeks after application in accordance with the following linear rating: • 1 = strong inhibition (no growth from the time of application) • 9 = no inhibition (growth as untreated controls)
# The yield increase was evaluated at the sime time in percent increase of the pods when compared with the yield of pods obtained with untreated control plants.
# Value A expresses the % increase in number of pods Value B express the % increase in weight of pods.
# chrysanthemum varieties = test: Biological tests on chrysanthemums, summary over all varieties; assay type: in vivo; details: depending on the variety; in sufficient water to wet all the foliage
# Procedure: as §1, §2
# Depending on the variety the optimal growth inhibition (20 to 35%) was obtained with rates between 125-250 ppm of the active ingredient of the Example in sufficient water to wet all the foliage. With one variety a soil drench application was also performed.
# [6] = tested on: Chrysanthemum variety "Regal Anne"; test: Biological tests on chrysanthemums, height reduction and delay in flowering; assay type: in vivo; details: Soil drench, 250 ppm
# [7] = Stability against hydrolysis; assay type: physicochemical; details: all pH-ranges from 3 to 10
# Procedure: (§4) 14,3 g (0,06 mole) of pyrrolidinoacetic acid 3-chloro-anilide are dissolved in 50 ml of ethyl acetate and then 9,4 g (0,078 mole) of allyl bromide are added. The reaction mixture is refluxed for 3 hours and the quaternised end product initially separates out as an oil which chrystallises after a brief time.After filtration with suction, washing with ethyl acetate and drying in vacuo at 50°C, 21,5 g (99,5% of theory) of the quaternary allyl pyrrolidino bromide of the formula [drawing 3] are obtained. Meting point: 144-147°C. The product is colourless, soluble in water (3,7%) and methanol (30%) and stable against hydrolysis in all pH-ranges from 3 to 10.
# [8] = Solubility of the product; assay type: physicochemical
# Procedure: as §4
structure (smiles),measurement,setting,value
"CN(C)NC(=O)CCC(=O)O [A, succinic acid mono-N-dimethylhydrazide, reference compound]",delay in flowering,[1]; 3400 ppm,* (^* = 3-4 days delay)
same,height reduction against check,"[1]; 3400 ppm, 14 DAA",30%
same,height reduction against check,"[1]; 3400 ppm, 32 DAA",30%
same,height reduction against check,"[1]; 3400 ppm, 39 DAA",25%
same,delay in flowering,"[2]; foliar spray, 3400 ppm",* (^* = 3-4 days delay)
same,height reduction against check,"[2]; foliar spray, 3400 ppm, 11 DAA",40%
same,height reduction against check,"[2]; foliar spray, 3400 ppm, 30 DAA",40%
same,height reduction against check,"[2]; foliar spray, 3400 ppm, 55 DAA",25%
same,delay in flowering,[3]; 3400 ppm,* (^* = 3-4 days delay)
same,height reduction against check,"[3]; 3400 ppm, 14 DAA",30%
same,height reduction against check,"[3]; 3400 ppm, 32 DAA",30%
same,height reduction against check,"[3]; 3400 ppm, 39 DAA",25%
same,delay in flowering,[4]; 3400 ppm,* (^* = 3-4 days delay)
same,height reduction against check,"[4]; 3400 ppm, 14 DAA",20%
same,height reduction against check,"[4]; 3400 ppm, 32 DAA",30%
same,height reduction against check,"[4]; 3400 ppm, 39 DAA",25%
C=CC[N+]1(CC(=O)Nc2cccc(Cl)c2)CCCC1 [B],delay in flowering,[1]; 125 ppm,* (^* = 3-4 days delay)
same,height reduction against check,"[1]; 125 ppm, 14 DAA",10%
same,height reduction against check,"[1]; 125 ppm, 32 DAA",30%
same,height reduction against check,"[1]; 125 ppm, 39 DAA",20%
same,delay in flowering,[1]; 250 ppm,** (^** = 4-7 days delay)
same,height reduction against check,"[1]; 250 ppm, 14 DAA",20%
same,height reduction against check,"[1]; 250 ppm, 32 DAA",35%
same,height reduction against check,"[1]; 250 ppm, 39 DAA",30%
same,delay in flowering,[1]; 500 ppm,** (^** = 4-7 days delay)
same,height reduction against check,"[1]; 500 ppm, 14 DAA",30%
same,height reduction against check,"[1]; 500 ppm, 32 DAA",40%
same,height reduction against check,"[1]; 500 ppm, 39 DAA",35%
same,height reduction against check,"[2]; Soil drench, 250 ppm, 30 DAA",50%
same,height reduction against check,"[2]; Soil drench, 250 ppm, 55 DAA",50%
same,delay in flowering,"[2]; foliar spray, 125 ppm",* (^* = 3-4 days delay)
same,height reduction against check,"[2]; foliar spray, 125 ppm, 11 DAA",10%
same,height reduction against check,"[2]; foliar spray, 125 ppm, 30 DAA",25%
same,height reduction against check,"[2]; foliar spray, 125 ppm, 55 DAA",25%
same,delay in flowering,"[2]; foliar spray, 250 ppm",* (^* = 3-4 days delay)
same,height reduction against check,"[2]; foliar spray, 250 ppm, 11 DAA",25%
same,height reduction against check,"[2]; foliar spray, 250 ppm, 30 DAA",50%
same,height reduction against check,"[2]; foliar spray, 250 ppm, 55 DAA",25%
same,delay in flowering,"[2]; foliar spray, 500 ppm",* (^* = 3-4 days delay)
same,height reduction against check,"[2]; foliar spray, 500 ppm, 11 DAA",25%
same,height reduction against check,"[2]; foliar spray, 500 ppm, 30 DAA",60%
same,height reduction against check,"[2]; foliar spray, 500 ppm, 55 DAA",40%
same,delay in flowering,"[2]; foliar spray, 1000 ppm",* (^* = 3-4 days delay)
same,height reduction against check,"[2]; foliar spray, 1000 ppm, 11 DAA",25%
same,height reduction against check,"[2]; foliar spray, 1000 ppm, 30 DAA",60%
same,height reduction against check,"[2]; foliar spray, 1000 ppm, 55 DAA",40%
same,delay in flowering,"[2]; foliar spray, 2000 ppm",** (^** = 4-7 days delay)
same,height reduction against check,"[2]; foliar spray, 2000 ppm, 11 DAA",40%
same,height reduction against check,"[2]; foliar spray, 2000 ppm, 30 DAA",75%
same,height reduction against check,"[2]; foliar spray, 2000 ppm, 55 DAA",50%
same,delay in flowering,[3]; 125 ppm,* (^* = 3-4 days delay)
same,height reduction against check,"[3]; 125 ppm, 14 DAA",10%
same,height reduction against check,"[3]; 125 ppm, 32 DAA",10%
same,height reduction against check,"[3]; 125 ppm, 39 DAA",20%
same,delay in flowering,[3]; 250 ppm,* (^* = 3-4 days delay)
same,height reduction against check,"[3]; 250 ppm, 14 DAA",15%
same,height reduction against check,"[3]; 250 ppm, 32 DAA",15%
same,height reduction against check,"[3]; 250 ppm, 39 DAA",25%
same,delay in flowering,[3]; 500 ppm,* (^* = 3-4 days delay)
same,height reduction against check,"[3]; 500 ppm, 14 DAA",15%
same,height reduction against check,"[3]; 500 ppm, 32 DAA",25%
same,height reduction against check,"[3]; 500 ppm, 39 DAA",25%
same,delay in flowering,[4]; 125 ppm,* (^* = 3-4 days delay)
same,height reduction against check,"[4]; 125 ppm, 14 DAA",0%
same,height reduction against check,"[4]; 125 ppm, 32 DAA",0%
same,height reduction against check,"[4]; 125 ppm, 39 DAA",10%
same,delay in flowering,[4]; 250 ppm,* (^* = 3-4 days delay)
same,height reduction against check,"[4]; 250 ppm, 14 DAA",10%
same,height reduction against check,"[4]; 250 ppm, 32 DAA",10%
same,height reduction against check,"[4]; 250 ppm, 39 DAA",25%
same,height reduction against check,"[4]; 500 ppm, 14 DAA",15%
same,height reduction against check,"[4]; 500 ppm, 32 DAA",25%
same,height reduction against check,"[4]; 500 ppm, 39 DAA",30%
same,inhibition of internode growth,chrysanthemums,uniform and reproducible inhibition of internode growth
same,Inhibition rating,[5]; 50 ppm spray,6
same,% increase of pods A (number of pods),[5]; 50ppm,45%
same,% increase of pods B (weight of pods),[5]; 50ppm,43%
same,Inhibition rating,[5]; 100 ppm spray,7
same,% increase of pods A (number of pods),[5]; 100 ppm,22%
same,% increase of pods B (weight of pods),[5]; 100 ppm,11%
same,Inhibition rating,[5]; 500 ppm spray,6
same,% increase of pods A (number of pods),[5]; 500 ppm,2%
same,% increase of pods B (weight of pods),[5]; 500 ppm,0%
same,rates giving the optimal growth inhibition (20 to 35%),chrysanthemum varieties,125-250 ppm
same,delay in flowering,[6],** (^** = 4-7 days delay)
same,height reduction against check,[6]; 11 DAA,25%
same,stable against hydrolysis,[7],stable
same,solubility,"[8]; methanol, organic solvent or mixture, read-out: soluble in methanol",300 mg/mL
same,solubility,"[8]; water, read-out: soluble in water",37 mg/mL
